According to patent US20230049619A1, “SIGMA-1 RECEPTOR LIGANDS AND USES THEREOF” (UNIVERSITE DE STRASBOURG, priority 2019, published 2023):
Counter-ions that a name gives are not always drawn.

Molecular target: T1, sigma-1 receptor (Homo sapiens, UniProt Q99720)
T1 construct: incubing Jurkat cell membranes ([…] protein per tube) with [^3H](+)-pentazocine; endogenous in cells; host or cells: Jurkat cell membranes
Experiment: sigma-1 receptor binding assay ([3H](+)-pentazocine displacement, Jurkat cell membranes)
Conditions: tested compound 10 nM, [3H](+)-pentazocine 15 nM, 37° C., 2 hours
Protocol: The sigma-1 receptor binding assays were performed according to Ganapathy et al. (J Pharmacol Exp Ther 28:251-60, 1999). The sigma-1 receptor binding assay was carried out by incubing Jurkat cell membranes ([…] protein per tube) with [^3H](+)-pentazocine a selective sigma-1 radiotracer (15 nM) and a range of concentration of tested compounds, at 37° C. for 2 hours in 5 mM tris/HCl buffer (pH=7.4). The inhibition of [^3H](+)-pentazocine binding assay is mainly used to determine the inhibition constant (Ki) of potential sigma-1 receptor ligands. These assays are performed with a single concentration of [^3H](+)-pentazocine at a concentration near its KD and increasing concentrations of non-radioactive ligands.

T1 sequence (Q99720 whole entry): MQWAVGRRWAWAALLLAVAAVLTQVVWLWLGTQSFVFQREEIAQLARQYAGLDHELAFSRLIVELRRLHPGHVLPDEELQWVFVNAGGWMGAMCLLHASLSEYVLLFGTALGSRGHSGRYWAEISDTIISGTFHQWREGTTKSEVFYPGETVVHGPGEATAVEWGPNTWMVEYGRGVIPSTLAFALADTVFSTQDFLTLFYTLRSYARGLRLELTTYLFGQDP

SMILES | inhibition at 0.01 µM [%] | sigma-1 receptor % inhibition 10 nM [%]
O=c1c(-c2ccccc2)ccnn1CC1(O)CCN(Cc2ccccc2)CC1 [cpd 29, 2-((1-benzyl-4-hydroxypiperidin-4-yl)methyl)-4-phenylpyridazin-3(2H)-one hydrochloride] | 10.6 | 
O=c1c(N2CCCCC2)ccnn1C1CCN(Cc2ccccc2)CC1 [cpd 38, 2-(1-benzylpiperidin-4-yl)-4-(piperidin-1-yl)-2,3-dihydropyridazin-3-one hydrochloride] | 52.3 | 
O=c1c(-c2ccccc2)ccnn1CCC1CCN(Cc2ccccc2)CC1 [cpd 26, 2-(2-(1-benzylpiperidin-4-yl)ethyl)-4-phenylpyridazin-3(2H)-one hydrochloride] | 80.9 | 
O=c1c(-c2ccccc2)ccnn1CC1CCN(CC(O)c2ccccc2)CC1 (stereo not drawn) [cpd 25, 2-((1-(2-hydroxy-2-phenylethyl)piperidin-4-yl)methyl)-4-phenylpyridazin-3(2H)-one hydrochloride] | 15.3 | 
O=c1c(-c2ccccc2)ccnn1CC1CCN(CC2CCCCC2)CC1 [cpd 13, 2-((1-(cyclohexylmethyl)piperidin-4-yl)methyl)-4-phenylpyridazin-3(2H)-one hydrochloride] | 59.3 | 
O=c1cc(-c2ccccc2)cnn1CC1CCN(Cc2ccccc2)CC1 [cpd 8, 2-((1-benzylpiperidin-4-yl)methyl)-5-phenylpyridazin-3(2H)-one hydrochloride] | 31.5 | 
O=c1c(-c2ccccc2)ccnn1CC1CCN(Cc2ccncc2)CC1 [cpd 14, 4-phenyl-2-((1-(pyridin-4-ylmethyl)piperidin-4-yl)methyl)pyridazin-3(2H)-one hydrochloride] | 16.4 | 
O=c1c(CCc2ccccc2)ccnn1CC1CCN(Cc2ccccc2)CC1 [cpd 36, 2-((1-benzylpiperidin-4-yl)methyl)-4-phenethylpyridazin-3(2H)-one] | 44.2 | 
Cl.Cl.O=c1c(-c2ccccc2)ccnn1CC1CCN(Cc2cnc[nH]2)CC1 [cpd 16, 2-{[1-(1H-imidazol-5-ylmethyl)piperidin-4-yl]methyl}-4-phenyl-2,3-dihydropyridazin-3-one dihydro-chloride] |  | 3.8
O=c1c(-c2ccccc2)ccnn1CC1CCN(CCO)CC1 [cpd 20, 2-((1-(2-hydroxyethyl)piperidin-4-yl)methyl)-4-phenylpyridazin-3(2H)-one hydrochloride] | 18.9 | 
CC(C1CCN(Cc2ccccc2)CC1)n1nccc(-c2ccccc2)c1=O (stereo not drawn) [cpd 28, 2-(1-(1-benzylpiperidin-4-yl)ethyl)-4-phenylpyridazin-3(2H)-one hydro chloride] | 37 | 
O=c1c(-c2ccc(F)cc2)ccnn1CC1CCN(Cc2ccccc2)CC1 [cpd 35, 2-((1-benzylpiperidin-4-yl)methyl)-4-(4-fluorophenyl)pyridazin-3(2H)-one hydrochloride] | 44.6 | 
O=C(CN1CCC(Cn2nccc(-c3ccccc3)c2=O)CC1)c1ccc(F)cc1 [cpd 24, 2-((1-(2-(4-fluorophenyl)-2-oxoethyl)piperidin-4-yl)methyl)-4-phenylpyridazin-3(2H)-one hydrochloride] | 6.2 | 
O=c1c(-c2ccccc2Cl)ccnn1CC1CCN(Cc2ccccc2)CC1 [cpd 33, 2-[(1-benzylpiperidin-4-yl)methyl]-4-(2-chlorophenyl)-2,3-dihydropyridazin-3-one hydrochloride] | 51.2 | 
O=c1c(-c2ccccc2)ccnn1CC1CCN(CC2CCOCC2)CC1 [cpd 15, 4-phenyl-2-((1-((tetrahydro-2H-pyran-4-yl)methyl)piperidin-4-yl)methyl)pyridazin-3(2H)-one dihydrochloride] | 19.3 | 
O=c1c(-c2ccccc2)ccnn1C1CCN(CC2CC2)CC1 [cpd 4, 2-[1-(cyclopropylmethyl)piperidin-4-yl]-4-phenyl-2,3-dihydropyridazin-3-one hydrochloride] | 13.5 | 

The next lines start with the values.

inhibition at 0.01 µM [%] | sigma-1 receptor % inhibition 10 nM [%] | SMILES
86 |  | Cl.O=c1c(-c2ccccc2)cncn1C1CCN(Cc2ccccc2)CC1 [cpd 43, 3-(1-benzylpiperidin-4-yl)-5-phenylpyrimidin-4(3H)-one hydrochloride]
29.6 |  | O=c1c(-c2ccccc2)cccn1C1CCN(Cc2ccccc2)CC1 [cpd 44, 1-(1-benzylpiperidin-4-yl)-3-phenyl-1,2-dihydropyridin-2-one hydrochloride]
5.2 |  | O=c1c(N2CCN(c3ccccc3)CC2)ccnn1CC1CCN(Cc2ccccc2)CC1 [cpd 41, 2-((1-benzylpiperidin-4-yl)methyl)-4-(4-phenylpiperazin-1-yl)pyridazin-3(2H)-one hydrochloride]
25.4 |  | O=c1c(N2CCc3ccccc3C2)ccnn1CC1CCN(Cc2ccccc2)CC1 [cpd 42, 2-((1-benzylpiperidin-4-yl)methyl)-4-(3,4-dihydroisoquinolin-2(1H)-yl)pyridazin-3(2H)-one hydrochloride]
75.6 |  | O=c1c(-c2ccccc2)cccn1CC1CCN(Cc2ccccc2)CC1 [cpd 46, 1-[(1-benzylpiperidin-4-yl)methyl]-3-phenyl-1,2-dihydropyridin-2-one hydrochloride]
 | 51.8 | Cl.O=c1c(N2CCCCC2)ccnn1CC1CCN(Cc2ccccc2)CC1 [cpd 39, 2-[(1-benzylpiperidin-4-yl)methyl]-4-(piperidin-1-yl)-2,3-dihydropyridazin-3-one hydro-chloride]
75.7 |  | O=c1c(-c2ccccc2)cncn1CC1CCN(Cc2ccccc2)CC1 [cpd 45, 3-((1-benzylpiperidin-4-yl)methyl)-5-phenylpyrimidin-4(3H)-one]

Same assay, conditions: tested compound 100 nM, [3H](+)-pentazocine 15 nM, 37° C., 2 hours

SMILES | inhibition at 0.1 µM [%]
Cl.O=c1c(-c2ccccc2)cncn1C1CCN(Cc2ccccc2)CC1 [cpd 43, 3-(1-benzylpiperidin-4-yl)-5-phenylpyrimidin-4(3H)-one hydrochloride] | 90
O=c1c(N2CCCCC2)ccnn1C1CCN(Cc2ccccc2)CC1 [cpd 38, 2-(1-benzylpiperidin-4-yl)-4-(piperidin-1-yl)-2,3-dihydropyridazin-3-one hydrochloride] | 90
O=c1c(-c2ccccc2)ccnn1CCC1CCN(Cc2ccccc2)CC1 [cpd 26, 2-(2-(1-benzylpiperidin-4-yl)ethyl)-4-phenylpyridazin-3(2H)-one hydrochloride] | 95

System: not given
Experiment: not given
Conditions: not given

SMILES | melting point [°C]
Cl.O=c1c(-c2ccccc2)cncn1C1CCN(Cc2ccccc2)CC1 [cpd 43, 3-(1-benzylpiperidin-4-yl)-5-phenylpyrimidin-4(3H)-one hydrochloride] | 144
